For the assay, the system named is pressor response to AII. As to the kind of experiment: Assay C: In Vivo Intragastric Pressor Assay Response for AII Antagonists. Also on record: species or system rat (male Sprague-Dawley). The following applies: po; 3 mg/kg i.g., rat, AII 30 ng/kg bolus. The method, then: Assay C: In Vivo Intragastric Pressor Assay Response for AII Antagonists of the Invention
Male Sprague-Dawley rats weighing 225-300 grams were anesthetized with methohexital (30 mg/kg, i.p.) and catheters were implanted into the femoral artery and vein. The catheters were tunneled subcutaneously to exit dorsally, posterior to the head and between the scapulae. The catheters were filled with heparin (1000 units/ml of saline). The rats were returned to their cage and allowed regular rat chow and water ad libitum. After full recovery from surgery (3-4 days), rats were placed in Lucite holders and the arterial line was connected to a pressure transducer. Arterial pressure was recorded on a Gould polygraph (mmHg). Angiotensin II was administered as a 30 ng/kg bolus via the venous catheter delivered in a 50 μl volume with a 0.2 ml saline flush. The pressor response in mmHg was measured by the difference from pre-injectionarterial pressure to the maximum pressure achieved. The AII injection was repeated every 10 minutes until three consecutive injections yielded responses within 4 mmHg of each other. These three responses were then averaged and represented the control response to AII. The test compound was suspended in 0.5% methylcellulose in water and was administered by gavage. The volume administered was 2 ml/kg body weight. The standard dose was 3 mg/kg. Angiotensin II bolus injections were given at 30, 45, 60, 75, 120, 150, and 180 minutes after gavage. The pressor response to AII was measured at each time point. The rats were then returned to their cage for future testing. A minimum of 3 days was allowed between tests. Percent inhibition was calculated for each time point following gavage by the following formula: [(Control Response-Response at time point)/Control Response]×100.

Regarding `CCCCc1nc(CCCC)n(Cc2ccc(-c3ccccc3-c3nnn[nH]3)nc2)n1` [Example 3, 5-[2-[5-[(3,5-dibutyl-1H-1,2,4-triazol-1-yl)methyl]-2-pyridinyl]phenyl]-1H-tetrazole], the inhibition in vivo at 3 mg/kg worked out at 40%. The figure for `CCCCc1nc(CCCC)n(Cc2ccc(-c3ccccc3-c3nnn[nH]3)cn2)n1` [Example 1, 5-[2-[6-[(3,5-dibutyl-1H-1,2,4-triazol-1-yl)methyl]-3-pyridinyl]phenyl]-1H-tetrazole] is 20%.

The term inhibition in vivo denotes the share of the control response that was lost under treatment. Read a high inhibition in vivo as strong suppression.

Values taken from US5602153A, “Method of using 1-arylheteroarylalkyl substituted-1H-1,2,4-triazole compounds for treatment of a giaucoma disorder” (G.D. Searle & Co., priority 1993, dated 1997).
